Laboratory results as given in patent US9862713B2, “Substituted bicyclic heteroaryl compounds as RXR agonists” (CONNEXIOS LIFE SCIENCES PVT. LTD., priority 2014, dated 2018).

tested on: hRXR α, β, or γ; experiment: Transactivation assay (RARE-Luc dual luciferase reporter in HEK-293 cells), activity relative to LG268; format: cell-based, human; conditions: compound at 300 nM, 24 h; luciferase activity expressed relative to LG268
Description: HEK-293 cells (ATCC) were seeded one day prior to transfection. For assessing EC50 of activation of RXR isoforms 2 μg of hRXR α, β, or γ (OriGENE, USA) over-expressing vector, 1 μg of plasmid expressing firefly luciferase under RARE element (RARE-Luc) and 25 ng of renilla luciferase vector (QIAGEN, USA) were co-transfected using lipofectamine reagent. Post 24 h of transfection, cells were treated with different concentrations of RXR agonists (100 nM, 300 nM and 1 uM) for 24 h followed by estimation of luciferase activity using Dual Luciferase Reporter Assay System (Promega). Luciferase activity was normalized to that of renilla luciferase. The activities of the RXR compounds were expressed relative to LG268, a known RXR agonist.

Row | Structure (SMILES) | Activity at 300 nM
1 | Cc1cc(N(CC(C)C)c2nc3c(s2)C(C)(C)CCC3(C)C)ccc1C(=O)O [Compound 58, 2-methyl-4-[(2-methylpropyl) (4,4,7,7-tetramethyl-4,5,6,7-tetrahydro-1,3-benzothiazol-2-yl)amino]benzoic acid] | *** (>0.4 and <0.5)
2 | Cc1c(N(c2ccccc2)c2ccc(C(=O)O)cc2)sc2c1C(C)(C)CCC2(C)C [Compound 102, 4-[(3,4,4,7,7-pentamethyl-4,5,6,7-tetrahydro-1-benzothiophen-2-yl) (phenyl)amino]benzoic acid] | ***** (>0.6)
3 | Cc1cc(C(=O)O)ccc1N(CC1CC1)c1nc2c(s1)C(C)(C)CCC2(C)C [Compound 60, 4-[(cyclopropylmethyl) (4,4,7,7-tetramethyl-4,5,6,7-tetrahydro-1,3-benzothiazol-2-yl)amino]-3-methylbenzoic acid] | ** (>0.3 and <0.4)
4 | CC(C)CN(c1ccc(C(=O)O)cc1)c1nc2c(s1)C(C)(C)C/C(=N/O)C2(C)C [Compound 89, 4-{[(5Z)-5-(hydroxyimino)-4,4,7,7-tetramethyl-4,5,6,7-tetrahydro-1,3-benzothiazol-2-yl](2-methylpropyl)amino}benzoic acid] | ** (>0.3 and <0.4)
5 | CC1(C)CCC(C)(C)c2sc(N(CC3CC3)c3ccc(CC(=O)O)cc3)nc21 [Compound 105, {4-[(cyclopropylmethyl) (4,4,7,7-tetramethyl-4,5,6,7-tetrahydro-1,3-benzothiazol-2-yl)amino]phenyl}acetic acid] | ***** (>0.6)
6 | Cc1c(N(CC(C)C)c2ccc(C(=O)O)c(Oc3ccccc3)c2)sc2c1C(C)(C)CCC2(C)C [Compound 57, 4-[(2-methylpropyl) (3,4,4,7,7-pentamethyl-4,5,6,7-tetrahydro-1-benzothiophen-2-yl)amino]-2-phenoxybenzoic acid] | ***** (>0.6)
7 | CC1(C)CCC(C)(C)c2sc(C3(c4ccc(C(=O)O)cc4)CC3)nc21 [Compound 98, 4-[1-(4,4,7,7-tetramethyl-4,5,6,7-tetrahydro-1,3-benzothiazol-2-yl)cyclopropyl]benzoic acid] | **** (>0.5 to <0.6)
8 | CC1(C)CCC(C)(C)c2sc(N(c3ccccc3)c3ccc(C(=O)O)cc3)nc21 [Compound 100, 4-[phenyl(4,4,7,7-tetramethyl-4,5,6,7-tetrahydro-1,3-benzothiazol-2-yl)amino]benzoic acid] | ***** (>0.6)
9 | CC(C)CN(c1ccc(C(=O)O)nc1)c1nc2c(s1)C(C)(C)CCC2(C)C [Compound 67, 5-[(2-methylpropyl) (4,4,7,7-tetramethyl-4,5,6,7-tetrahydro-1,3-benzothiazol-2-yl)amino]pyridine-2-carboxylic acid] | * (<0.3)
10 | CC1(C)CCC(C)(C)c2sc(N(C(=O)C3CCC3)c3ccc(C(=O)O)cn3)nc21 [Compound 84, 6-[(cyclobutylcarbonyl) (4,4,7,7-tetramethyl-4,5,6,7-tetrahydro-1,3-benzothiazol-2-yl)amino]pyridine-3-carboxylic acid] | ** (>0.3 and <0.4)
11 | CC1(C)CCC(C)(C)c2sc(N(CC3CC3)c3ccc(CCC(=O)O)cc3)nc21 [Compound 106, 3-{4-[(cyclopropylmethyl) (4,4,7,7-tetramethyl-4,5,6,7-tetrahydro-1,3-benzothiazol-2-yl)amino]phenyl}propanoic acid] | ***** (>0.6)
12 | C=C(c1ccc(C(=O)O)cc1)c1nc2c(s1)C(C)(C)CCC2(C)C [Compound 97, 4-[1-(4,4,7,7-tetramethyl-4,5,6,7-tetrahydro-1,3-benzothiazol-2-yl)ethenyl]benzoic acid] | ** (>0.3 and <0.4)
13 | C#CCOc1cc(N(CC(C)C)c2sc3c(c2C)C(C)(C)CCC3(C)C)ccc1C(=O)O [Compound 56, 4-[(2-methylpropyl) (3,4,4,7,7-pentamethyl-4,5,6,7-tetrahydro-1-benzothiophen-2-yl)amino]-2-(prop-2-yn-1-yloxy)benzoic acid] | *** (>0.4 and <0.5)
14 | CCCN(c1ccc(C(=O)O)cn1)c1nc2c(s1)C(C)(C)CCC2(C)C [Compound 65, 6-[propyl(4,4,7,7-tetramethyl-4,5,6,7-tetrahydro-1,3-benzothiazol-2-yl)amino]pyridine-3-carboxylic acid] | ***** (>0.6)

same assay, conditions: compound at 1 µM, 24 h; luciferase activity expressed relative to LG268

Row | Structure (SMILES) | Activity at 1 µM
15 | CCN(c1ccc(C(=O)O)cn1)c1sc2c(c1C)C(C)(C)CCC2(C)C [Compound 18, 6-[Ethyl(3,4,4,7,7-pentamethyl-4,5,6,7-tetrahydro-1-benzothiophen-2-yl)amino]pyridine-3-carboxylic acid] | ***** (>1)
16 | Cc1c(/C(=N/O)c2ccc(C(=O)O)cc2)sc2c1C(C)(C)CCC2(C)C [Compound 3, 4-[(E)-(Hydroxyimino) (3,4,4,7,7-pentamethyl-4,5,6,7-tetrahydro-1-benzothiophen-2-yl)methyl]benzoic acid] | ***** (>1)
17 | Cc1c(N(c2ccc(C(=O)O)cc2)S(C)(=O)=O)sc2c1C(C)(C)CCC2(C)C [Compound 14, 4-[(Methylsulfonyl) (3,4,4,7,7-pentamethyl-4,5,6,7-tetrahydro-1-benzothiophen-2-yl)amino]benzoic acid] | **** (>0.9 to <1)
18 | Cc1c(N(c2ccc(C(=O)O)cn2)C2CC2)sc2c1C(C)(C)CCC2(C)C [Compound 19, 6-[Cyclopropyl(3,4,4,7,7-pentamethyl-4,5,6,7-tetrahydro-1-benzothiophen-2-yl)amino]pyridine-3-carboxylic acid] | ***** (>1)
19 | Cc1c(-n2nnc3cc(C(=O)O)ccc32)sc2c1C(C)(C)CCC2(C)C [Compound 28, 1-(3,4,4,7,7-Pentamethyl-4,5,6,7-tetrahydro-1-benzothiophen-2-yl)-1H-benzotriazole-5-carboxylic acid] | * (<0.7)
20 | Cc1c(N(c2ccc(C(=O)O)cc2)C(C)C)sc2c1C(C)(C)CCC2(C)C [Compound 13, 4-[(3,4,4,7,7-Pentamethyl-4,5,6,7-tetrahydro-1-benzothiophen-2-yl) (propan-2-yl)amino]benzoic acid] | ** (>0.7 and <0.8)
21 | CC1(C)CCC(C)(C)c2sc(N(CC3CC3)c3ccc(C(=O)O)cc3)nc21 [Compound 38, 4-[(Cyclopropylmethyl) (4,4,7,7-tetramethyl-4,5,6,7-tetrahydro-1,3-benzothiazol-2-yl)amino]benzoic acid] | *** (>0.8 and <0.9)
22 | Cc1c(N(CC2CC2)c2ccc(C(=O)O)cn2)sc2c1C(C)(C)CCC2(C)C [Compound 20, 6-[(Cyclopropylmethyl) (3,4,4,7,7-pentamethyl-4,5,6,7-tetrahydro-1-benzothiophen-2-yl)amino]pyridine-3-carboxylic acid] | ***** (>1)
23 | C=C(c1ccc(C(=O)O)cn1)c1sc2c(c1C)C(C)(C)CCC2(C)C [Compound 6, 6-[1-(3,4,4,7,7-Pentamethyl-4,5,6,7-tetrahydro-1-benzothiophen-2-yl)ethenyl]pyridine-3-carboxylic acid] | *** (>0.8 and <0.9)
24 | Cc1c(NC(=O)c2ccc(C(=O)O)cc2)sc2c1C(C)(C)CCC2(C)C [Compound 25, 4-[(3,4,4,7,7-Pentamethyl-4,5,6,7-tetrahydro-1-benzothiophen-2-yl)carbamoyl]benzoic acid] | * (<0.7)
25 | CN(c1ccc(C(=O)O)cc1)c1nc2c(s1)C(C)(C)C=CC2(C)C [Compound 34, 4-[Methyl(4,4,7,7-tetramethyl-4,7-dihydro-1,3-benzothiazol-2-yl)amino]benzoic acid] | ** (>0.7 and <0.8)
26 | Cc1c(N(C)c2ccc(C(=O)O)cc2)sc2c1C(C)(C)CCC2(C)C [Compound 8, 4-[Methyl(3,4,4,7,7-pentamethyl-4,5,6,7-tetrahydro-1-benzothiophen-2-yl)amino]benzoic acid] | ***** (>1)
27 | CCN(c1ccc(C(=O)O)cc1)c1cc2c(s1)C(C)(C)CCC2(C)C [Compound 27, 4-[Ethyl(4,4,7,7-tetramethyl-4,5,6,7-tetrahydro-1-benzothiophen-2-yl)amino]benzoic acid] | ***** (>1)
28 | Cc1c(/C=C/c2ccc(C(=O)O)cc2)sc2c1C(C)(C)CCC2(C)C [Compound 29, 4-[(E)-2-(3,4,4,7,7-Pentamethyl-4,5,6,7-tetrahydro-1-benzothiophen-2-yl)ethenyl]benzoic acid] | ***** (>1)
29 | Cc1c(N(c2ccc(C(=O)O)cn2)S(C)(=O)=O)sc2c1C(C)(C)CCC2(C)C [Compound 22, 6-[(Methylsulfonyl) (3,4,4,7,7-pentamethyl-4,5,6,7-tetrahydro-1-benzothiophen-2-yl)amino]pyridine-3-carboxylic acid] | ***** (>1)
30 | CC1(C)CCC(C)(C)c2sc(C(=O)c3ccc(C(=O)O)cc3)nc21 [Compound 47, 4-[(4,4,7,7-Tetramethyl-4,5,6,7-tetrahydro-1,3-benzothiazol-2-yl)carbonyl]benzoic acid] | * (<0.7)
31 | Cc1c(/C=C\c2ccc(C(=O)O)cc2)sc2c1C(C)(C)CCC2(C)C [Compound 30, 4-[(Z)-2-(3,4,4,7,7-Pentamethyl-4,5,6,7-tetrahydro-1-benzothiophen-2-yl)ethenyl]benzoic acid] | ***** (>1)
32 | COc1ccc(C2CC2C(=O)O)cc1-c1sc2c(c1C)C(C)(C)CCC2(C)C (stereo not drawn) [Compound 16, 2-[4-Methoxy-3-(3,4,4,7,7-pentamethyl-4,5,6,7-tetrahydro-1-benzothiophen-2-yl)phenyl]cyclopropanecarboxylic acid] | * (<0.7)
33 | CC1(C)CCC(C)(C)c2sc(/C=C/c3ccc(C(=O)O)cc3)nc21 [Compound 48, 4-[(E)-2-(4,4,7,7-Tetramethyl-4,5,6,7-tetrahydro-1,3-benzothiazol-2-yl)ethenyl]benzoic acid] | * (<0.7)
